In test [1] the target is T1, human TLR8 (hTLR8) (Homo sapiens, UniProt Q9NR97).
T1 construct: expressed in transfected cells
T1 sequence (Q9NR97 27-1041): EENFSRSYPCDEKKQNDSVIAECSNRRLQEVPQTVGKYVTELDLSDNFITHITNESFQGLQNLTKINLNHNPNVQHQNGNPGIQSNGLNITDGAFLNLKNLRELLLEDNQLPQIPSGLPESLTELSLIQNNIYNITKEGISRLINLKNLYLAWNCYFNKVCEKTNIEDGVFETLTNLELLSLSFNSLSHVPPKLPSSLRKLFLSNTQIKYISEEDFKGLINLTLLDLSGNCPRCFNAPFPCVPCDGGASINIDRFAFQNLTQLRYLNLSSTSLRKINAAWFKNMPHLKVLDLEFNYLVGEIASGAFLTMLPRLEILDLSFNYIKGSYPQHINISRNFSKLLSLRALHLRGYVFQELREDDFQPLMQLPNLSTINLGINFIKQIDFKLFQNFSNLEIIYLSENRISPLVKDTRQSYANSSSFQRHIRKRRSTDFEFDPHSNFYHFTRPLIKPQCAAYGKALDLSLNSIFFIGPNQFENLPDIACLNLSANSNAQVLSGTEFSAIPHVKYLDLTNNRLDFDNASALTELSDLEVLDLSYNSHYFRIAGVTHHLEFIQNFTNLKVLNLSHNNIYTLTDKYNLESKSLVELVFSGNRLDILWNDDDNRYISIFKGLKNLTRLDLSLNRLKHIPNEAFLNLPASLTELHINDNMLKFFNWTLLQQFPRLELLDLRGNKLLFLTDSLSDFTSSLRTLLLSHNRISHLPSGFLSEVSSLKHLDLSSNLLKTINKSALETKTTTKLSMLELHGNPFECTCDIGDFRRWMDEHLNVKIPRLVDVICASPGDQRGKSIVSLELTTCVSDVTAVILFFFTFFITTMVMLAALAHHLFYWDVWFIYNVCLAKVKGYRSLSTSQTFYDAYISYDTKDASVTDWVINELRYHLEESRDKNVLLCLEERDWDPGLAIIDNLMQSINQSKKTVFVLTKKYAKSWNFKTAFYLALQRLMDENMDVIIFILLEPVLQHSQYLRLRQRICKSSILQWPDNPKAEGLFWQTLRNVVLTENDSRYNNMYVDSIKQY
Briefly: Human TLR8 agonist activity assay (measured in a similar manner). In kind it is cell-based. Conditions: HEK-Blue TLR cells, SEAP reporter, measured in a similar manner to TLR7; some values average of multiple measurements. The protocol:
(§1) This procedure describes a method for assaying human TLR7 (hTLR7) and human TLR8 (hTLR8) agonist activity of the compounds disclosed herein.
HEK-Blue™ TLR7 cells were added to each well of a 384-well tissue-culture plate (15,000 cells per well) and incubated 16-18 h at 37° C., 5% CO2. Compounds (100 nL) were dispensed into wells containing the HEK-Blue™ TLR cells and the treated cells were incubated at 37° C., 5% CO2. After 18 h, ten microliters 5 of freshly prepared Quanti-Blue™ reagent (Invivogen) was added to each well and incubated for 30 min (37° C., […]). SLAP levels were measured using an Envision plate reader (OD=620 nm). […] Some of the reported activities were the average of multiple measurements.
TLR8 activity was measured in a similar manner.

Test [2] addresses T2, human TLR7 (hTLR7) (Homo sapiens, UniProt Q9NYK1).
T2 construct: host or cells: HEK-Blue TLR7 cells (engineered human embryonic kidney cells)
T2 sequence (Q9NYK1 27-1049): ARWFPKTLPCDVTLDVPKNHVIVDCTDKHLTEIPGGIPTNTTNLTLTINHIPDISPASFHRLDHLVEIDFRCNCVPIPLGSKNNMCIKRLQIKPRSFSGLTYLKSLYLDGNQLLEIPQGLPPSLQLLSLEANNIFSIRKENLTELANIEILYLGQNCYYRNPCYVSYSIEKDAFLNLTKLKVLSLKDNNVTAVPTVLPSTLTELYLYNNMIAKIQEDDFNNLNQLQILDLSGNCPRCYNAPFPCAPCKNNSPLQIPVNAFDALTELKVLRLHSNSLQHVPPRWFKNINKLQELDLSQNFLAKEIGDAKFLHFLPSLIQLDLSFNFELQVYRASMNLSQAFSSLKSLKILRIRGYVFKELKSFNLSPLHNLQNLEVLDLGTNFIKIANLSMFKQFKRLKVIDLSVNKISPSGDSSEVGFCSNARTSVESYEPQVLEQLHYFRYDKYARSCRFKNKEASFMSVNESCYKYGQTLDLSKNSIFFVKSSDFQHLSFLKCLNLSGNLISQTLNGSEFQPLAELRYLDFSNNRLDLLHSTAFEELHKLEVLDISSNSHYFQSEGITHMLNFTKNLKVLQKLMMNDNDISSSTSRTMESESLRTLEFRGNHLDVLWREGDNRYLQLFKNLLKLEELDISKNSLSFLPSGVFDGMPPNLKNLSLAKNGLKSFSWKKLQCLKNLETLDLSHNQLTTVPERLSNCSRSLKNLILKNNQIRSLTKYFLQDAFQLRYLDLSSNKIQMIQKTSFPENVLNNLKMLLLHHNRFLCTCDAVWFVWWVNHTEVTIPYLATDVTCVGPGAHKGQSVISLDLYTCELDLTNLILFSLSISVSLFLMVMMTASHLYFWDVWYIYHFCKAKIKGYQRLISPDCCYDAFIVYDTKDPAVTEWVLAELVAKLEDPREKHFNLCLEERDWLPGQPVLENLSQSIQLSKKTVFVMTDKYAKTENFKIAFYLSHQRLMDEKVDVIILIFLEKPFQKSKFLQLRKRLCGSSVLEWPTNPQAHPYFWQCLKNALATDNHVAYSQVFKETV
The test is described as follows: Human TLR7 agonist activity assay (HEK-Blue TLR7 SEAP reporter). Conditions: HEK-Blue TLR7 cells, 18 h incubation, Quanti-Blue, OD 620 nm, some values average of multiple measurements. In kind it is cell-based. The protocol: as §1
HEK-Blue™ TLR7 cells were added to each well of a 384-well tissue-culture plate (15,000 cells per well) and incubated 16-18 h at 37° C., 5% CO2. Compounds (100 nL) were dispensed into wells containing the HEK-Blue™ TLR cells and the treated cells were incubated at 37° C., 5% CO2. After 18 h, ten microliters 5 of freshly prepared Quanti-Blue™ reagent (Invivogen) was added to each well and incubated for 30 min (37° C., […]). SLAP levels were measured using an Envision plate reader (OD=620 nm). The half maximal effective concentration values (ECSO; compound concentration which induced a response halfway between the assay baseline and maximum) were calculated. Some of the reported activities were the average of multiple measurements.

Our source for the EC50 values is patent publication US20250282776A1, “Bicyclic TLR7 Agonists and Uses Thereof” (Bristol-Myers Squibb Company, priority 2024, published 2025).

For orientation: EC50 means the concentration needed to bring the measured effect to its halfway point. The low end stands for an effect from little substance, the high end for a need for much substance.

In the case of `CCCCN(CCO)c1nc(N)nc2cn(Cc3c(F)cc(C4CCN(CCS(C)(=O)=O)CC4)cc3OC)nc12` [Compound 42], the EC50 in test [1] worked out at 496 nM; in test [2], 101 nM.
With `CCCCCN(CCO)c1nc(N)nc2cn(Cc3ccc(CNC4CCC4)cc3OC)nc12` [Compound 44], the EC50 came out at 705 nM in test [1] and 825 nM in test [2].
For `CCCCNCc1ccc(Cn2cc3nc(N)nc(N(CCO)CCCC)c3n2)c2ncccc12` [Compound 45], the figures for the EC50 in test [1] and in test [2] were 205 nM and 280 nM, respectively.
The like results for `CCCCN(CCO)c1nc(N)nc2cn(Cc3ccc(CNC4CCC4)c4cccnc34)nc12` [Compound 46, 2-((5-Amino-2-((5-((cyclobutylamino)methyl)quinolin-8-yl)methyl)-2H-pyrazolo[4,3-d]pyrimidin-7-yl)(butyl)amino)ethan-1-ol] were, in that order, 360 nM and 326 nM.
Turning to `CCCCN(CCO)c1nc(N)nc2cn(Cc3c(F)cc(C4CCN(C)CC4)cc3OC)nc12` [Compound 47], the figures for the EC50 in test [1] and in test [2] were 538 nM and 186 nM, respectively.
With `CCCCN(CCO)c1nc(N)nc2cn(Cc3ccc(CN4CC(CCOC)C4)c4cccnc34)nc12` [Compound 48], the 50% effective concentration (EC50) in test [1] came out at 227 nM; in test [2], 182 nM.
In the same order, the values of `CCCCN(c1nc(N)nc2cn(Cc3ccc(CN4CCCCC4)cc3OC)nc12)C(C)CO` (centres unmarked) [Compound 50] are 949 nM and 374 nM.
In the same order, the values of `CCCCN(CCO)c1nc(N)nc2cn(Cc3ccc(CN[C@H]4CCOC4)cc3OC)nc12` [Compound 52] are 1070 nM and 1190 nM.
In the same order, the values of `CCCCN(CCO)c1nc(N)nc2cn(Cc3ccc(CN[C@@H]4CCOC4)cc3OC)nc12` [Compound 53] are 486 nM and 731 nM.
`CCCCN(CCO)c1nc(N)nc2cn(Cc3ccc(CN[C@@H]4COC[C@@H]4F)cc3OC)nc12` [Compound 54]: the values for the EC50 in test [1] and in test [2] were 1500 nM and 1330 nM, respectively.
With `CCCCN(CCO)c1nc(N)nc2cn(Cc3ccc(CN4CCCNCC4)cc3OC)nc12` [Compound 55], the EC50 in test [1] was 2030 nM; in test [2], 349 nM.
On to `CCCCN(CCO)c1nc(N)nc2cn(Cc3ccc(CN[C@H]4CCN(C(C)C)C4)cc3OC)nc12` [Compound 56], for which the concentration for a half-maximal effect (EC50) amounted to 2310 nM in test [1] and 1700 nM in test [2].
For the molecule `CCCCCNCc1ccc(Cn2cc3nc(N)nc(N(CCO)CCCC)c3n2)c2ncccc12` [Compound 57], the half-maximal effective concentration (EC50) in test [1] is 1390 nM; in test [2] it was 2000 nM.
Take `CCCCN(CCO)c1nc(N)nc2cn(Cc3ccc(CNC4CCOCC4)c4cccnc34)nc12` [Compound 58]: the EC50 in test [1] amounted to 488 nM; in test [2], 757 nM.
The like results for `CCCCN(CCO)c1nc(N)nc2cn(Cc3ccc(CNCCCCO)c4cccnc34)nc12` [Compound 59] were, in that order, 1140 nM and 1550 nM.
The like results for `CCCCN(CCO)c1nc(N)nc2cn(Cc3ccc(CN4CCN(C5CCC5)CC4)c4cccnc34)nc12` [Compound 60] were, in that order, 469 nM and 326 nM.
On to `CCCCN(CCO)c1nc(N)nc2cn(Cc3ccc(CNC4CCCC4)c4cccnc34)nc12` [Compound 61], for which the half-maximal effective concentration (EC50) in test [1] amounted to 952 nM; in test [2], 1500 nM.
The like results for `CCCCN(CCO)c1nc(N)nc2cn(Cc3ccc(CN4CC(CCO)C4)c4cccnc34)nc12` [Compound 62] were, in that order, 675 nM and 1310 nM.
Regarding `CCCCN(CCO)c1nc(N)nc2cn(Cc3ccc(CNCCCC4CC4)c4cccnc34)nc12` [Compound 63], the 50% effective concentration (EC50) in test [1] is 736 nM; in test [2] it was 915 nM.
Take `CCCCN(CCO)c1nc(N)nc2cn(Cc3ccc(CNC4CC(F)(F)C4)c4cccnc34)nc12` [Compound 64]: the figures for the EC50 in test [1] and in test [2] were 1550 nM and 2110 nM, respectively.
On to `CCCCN(CCO)c1nc(N)nc2cn(Cc3ccc(CNC4CCN(C)CC4)c4cccnc34)nc12` [Compound 65], for which the half-maximal effective concentration (EC50) in test [1] stood at 2380 nM; in test [2], 2090 nM.
As to `CCCCN(CCO)c1nc(N)nc2cn(Cc3ccc(CNC4CCN(CCOC)CC4)c4cccnc34)nc12` [Compound 66], the half-maximal effective concentration (EC50) was determined as 2130 nM in test [1] and 1590 nM in test [2].
As for `CCCCN(c1nc(N)nc2cn(Cc3ccc(CN[C@@H]4CCOC4)cc3OC)nc12)C(C)CO` (some centres unmarked) [Compound 68], the EC50 in test [1] was 1320 nM; in test [2], 349 nM.
For the molecule `CCCCCN(CCO)c1nc(N)nc2cn(Cc3ccc(CN[C@@H]4CCOC4)cc3OC)nc12` [Compound 70], the 50% effective concentration (EC50) amounted to 1060 nM in test [1] and 1050 nM in test [2].
For the molecule `CCCCN(CCOC)c1nc(N)nc2cn(Cc3ccc(CN[C@@H]4CCOC4)cc3OC)nc12` [Compound 71], the EC50 in test [1] was determined as 1880 nM; in test [2] it was 621 nM.
`CCCCN(CCO)c1nc(N)nc2cn(Cc3c(F)cc(CNCCO)cc3OC)nc12` [Compound 72]: the figures for the EC50 in test [1] and in test [2] were 835 nM and 738 nM, respectively.
Consider `CCCCN(CCO)c1nc(N)nc2cn(Cc3c(F)cc(CNCCOC)cc3OC)nc12` [Compound 73], for which the EC50 in test [1] was found to be 593 nM; in test [2], 320 nM.
With `CCCCN(CCO)c1nc(N)nc2cn(Cc3c(F)cc(CNC4CCOCC4)cc3OC)nc12` [Compound 74], the EC50 in test [1] stood at 1280 nM; in test [2], 741 nM.
For `CCCCN(CCO)c1nc(N)nc2cn(Cc3c(F)cc(CN[C@@H]4CCOC4)cc3OC)nc12` [Compound 75], the EC50 in test [1] stood at 670 nM; in test [2], 370 nM.
Regarding `CCCCN(CCO)c1nc(N)nc2cn(Cc3c(F)cc(CNCC(C)(C)C)cc3OC)nc12` [Compound 80], the results for the EC50 in test [1] and in test [2] were 1620 nM and 1410 nM, respectively.
With `CCCCN(CCO)c1nc(N)nc2cn(Cc3c(F)cc(CNCC(C)(C)O)cc3OC)nc12` [Compound 81], the half-maximal effective concentration (EC50) in test [1] was 1430 nM; in test [2] it was 1000 nM.
